In patent US8802597B2, “Herbicidal pyrimidines” (E I du Pont de Nemours and Company, priority 2003, dated 2014):

Tests used:
Type in all cases: in vivo
[1] = tested on: crabgrass (Digitaria sanguinalis); experiment: Test A pre/postemergence
How it was run: (§1)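 Seeds sown in loam–sand blend received a preemergence directed soil spray of test chemical in non-phytotoxic solvent with surfactant; same-formulation postemergence spray given concurrently to plants 2–10 cm tall at 1- to 2-leaf stage. Greenhouse ~ten days, then visual injury rating versus untreated controls, 0 (no effect) to 100 (complete control).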

[2] = tested on: barnyardgrass (Echinochloa crus-galli); experiment: Test A pre/postemergence
How it was run: as §1

[3] = tested on: giant foxtail (Setaria faberi); experiment: Test A pre/postemergence
How it was run: as §1

[4] = tested on: morningglory (Ipomoea spp.); experiment: Test A pre/postemergence
How it was run: as §1

[5] = tested on: velvetleaf (Abutilon theophrasti); experiment: Test A pre/postemergence
How it was run: as §1

[6] = tested on: redroot pigweed (Amaranthus retroflexus); experiment: Test A pre/postemergence
How it was run: as §1

[7] = tested on: water seeded rice seedlings (Oryza sativa cv. ‘Japonica-M202’); experiment: Test E flooded paddy water application; settings: Flood, 21 days, scale 0 to 100 (0 no effect, 100 complete control); for Plant response rating, Rice, Water Seeded: 16 g ai/ha
How it was run: (§2)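 Response scored visually on a 0–100 scale (100 = complete control) at 21 days against untreated pots. Treatment was into paddy water 3 cm deep over silt loam, with plants at the 2.0–2.5-leaf stage, grown under 16-h light at 29.5/26.7 °C day/night.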

[8] = tested on: smallflower umbrella sedge (Cyperus difformis); experiment: Test E flooded paddy water application; settings: Flood, 21 days, scale 0 to 100 (0 no effect, 100 complete control); for Plant response rating, Sedge, Umbrella: 16 g ai/ha
How it was run: as §2

[9] = tested on: late watergrass (Echinochloa oryzicola); experiment: Test E flooded paddy water application; settings: Flood, 21 days, scale 0 to 100 (0 no effect, 100 complete control); for Plant response rating, Watergrass, Late: 16 g ai/ha
How it was run: as §2

[10] = tested on: junglerice (Echinochloa colona); experiment: Test E flooded paddy water application; settings: Flood, 21 days, scale 0 to 100 (0 no effect, 100 complete control); for Plant response rating, Junglerice: 16 g ai/ha
How it was run: as §2

[11] = tested on: barnyardgrass (Echinochloa crus-galli); experiment: Test E flooded paddy water application; settings: Flood, 21 days, scale 0 to 100 (0 no effect, 100 complete control)
How it was run: as §2

[12] = tested on: rice flatsedge (Cyperus iria); experiment: Test E flooded paddy water application; settings: Flood, 21 days, scale 0 to 100 (0 no effect, 100 complete control); for Plant response rating, Flatsedge, Rice: 16 g ai/ha
How it was run: as §2

[13] = tested on: transplanted rice seedlings (Oryza sativa cv. ‘Japonica-M202’); experiment: Test E flooded paddy water application; settings: Flood, 21 days, scale 0 to 100 (0 no effect, 100 complete control); for Plant response rating, Rice, Transplanted: 16 g ai/ha
How it was run: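 Greenhouse pots of Tama silt loam with weeds and rice at 2.0–2.5-leaf stage, flooded to 3 cm; compounds applied directly into paddy water, depth maintained. Visual rating versus untreated controls after 21 days, 0 (no effect) to 100 (complete control); 29.5/26.7 °C, 16-h photoperiod.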

[14] = tested on: bearded (brdd.) sprangletop (Leptochloa fusca ssp. fascicularis); experiment: Test E flooded paddy water application; settings: Flood, 21 days, scale 0 to 100 (0 no effect, 100 complete control); for Plant response rating, Sprangletop, Brdd.: 16 g ai/ha
How it was run: as §2

[15] = tested on: purple redstem (Ammannia coccinea); experiment: Test E flooded paddy water application; settings: Flood, 21 days, scale 0 to 100 (0 no effect, 100 complete control); for Plant response rating, Redstem: 16 g ai/ha
How it was run: as §2

[16] = tested on: early watergrass (Echinochloa oryzoides); experiment: Test E flooded paddy water application; settings: Flood, 21 days, scale 0 to 100 (0 no effect, 100 complete control); for Plant response rating, Watergrass, Early: 16 g ai/ha
How it was run: as §2

[17] = tested on: ducksalad (Heteranthera limosa); experiment: Test E flooded paddy water application; settings: Flood, 21 days, scale 0 to 100 (0 no effect, 100 complete control); for Plant response rating, Ducksalad: 16 g ai/ha
How it was run: as §2

[18] = Postemergence, 125 g ai/ha, 0 to 100 scale (0 no effect, 100 complete control)
[19] = Postemergence, 500 g ai/ha, 0 to 100 scale (0 no effect, 100 complete control)
[20] = Preemergence, 125 g ai/ha, 0 to 100 scale where 0 is no effect and 100 is complete control, approximately ten days
[21] = Preemergence, 500 g ai/ha, 0 to 100 scale where 0 is no effect and 100 is complete control, approximately ten days

COC(=O)c1nc(-c2ccc(C)cc2)nc(N)c1Cl [Compound 84]
Plant response rating, Crabgrass [1, 18]: 0
Plant response rating, Crabgrass [1, 19]: 10
Plant response rating, Crabgrass [1, 20]: 0
Plant response rating, Crabgrass [1, 21]: 15
Plant response rating, Barnyardgrass [2, 18]: 55
Plant response rating, Barnyardgrass [2, 19]: 80
Plant response rating, Barnyardgrass [2, 20]: 0
Plant response rating, Barnyardgrass [2, 21]: 25
Plant response rating, Foxtail, Giant [3, 18]: 0
Plant response rating, Foxtail, Giant [3, 19]: 20
Plant response rating, Foxtail, Giant [3, 20]: 0
Plant response rating, Foxtail, Giant [3, 21]: 20
Plant response rating, Morningglory [4, 18]: 5
Plant response rating, Morningglory [4, 19]: 20
Plant response rating, Morningglory [4, 20]: 0
Plant response rating, Morningglory [4, 21]: 0
Plant response rating, Velvetleaf [5, 18]: 75
Plant response rating, Velvetleaf [5, 19]: 90
Plant response rating, Velvetleaf [5, 20]: 15
Plant response rating, Velvetleaf [5, 21]: 70
Plant response rating, Pigweed [6, 18]: 60
Plant response rating, Pigweed [6, 19]: 65
Plant response rating, Pigweed [6, 20]: 0
Plant response rating, Pigweed [6, 21]: 80
Rice, Water Seeded plant response rating ([7]; 32 g ai/ha): 0
Rice, Water Seeded plant response rating ([7]; 64 g ai/ha): 0
Rice, Water Seeded plant response rating ([7]; 125 g ai/ha): 0
Rice, Water Seeded plant response rating ([7]; 250 g ai/ha): 30
Plant response rating, Rice, Water Seeded [7]: 0
Sedge, Umbrella plant response rating ([8]; 32 g ai/ha): 80
Sedge, Umbrella plant response rating ([8]; 64 g ai/ha): 80
Sedge, Umbrella plant response rating ([8]; 125 g ai/ha): 90
Sedge, Umbrella plant response rating ([8]; 250 g ai/ha): 100
Plant response rating, Sedge, Umbrella [8]: 70
Watergrass, Late plant response rating ([9]; 32 g ai/ha): 0
Watergrass, Late plant response rating ([9]; 64 g ai/ha): 0
Watergrass, Late plant response rating ([9]; 125 g ai/ha): 0
Watergrass, Late plant response rating ([9]; 250 g ai/ha): 20
Plant response rating, Watergrass, Late [9]: 0
Junglerice plant response rating ([10]; 32 g ai/ha): 0
Junglerice plant response rating ([10]; 64 g ai/ha): 0
Junglerice plant response rating ([10]; 125 g ai/ha): 50
Junglerice plant response rating ([10]; 250 g ai/ha): 50
Plant response rating, Junglerice [10]: 0
Barnyardgrass plant response rating ([11]; 32 g ai/ha): 0
Barnyardgrass plant response rating ([11]; 64 g ai/ha): 0
Barnyardgrass plant response rating ([11]; 125 g ai/ha): 20
Barnyardgrass plant response rating ([11]; 250 g ai/ha): 85
Plant response rating, Barnyardgrass ([11]; 16 g ai/ha): 0
Flatsedge, Rice plant response rating ([12]; 32 g ai/ha): 35
Flatsedge, Rice plant response rating ([12]; 64 g ai/ha): 60
Flatsedge, Rice plant response rating ([12]; 125 g ai/ha): 60
Flatsedge, Rice plant response rating ([12]; 250 g ai/ha): 80
Plant response rating, Flatsedge, Rice [12]: 25
Rice, Transplanted plant response rating ([13]; 32 g ai/ha): 0
Rice, Transplanted plant response rating ([13]; 64 g ai/ha): 0
Rice, Transplanted plant response rating ([13]; 125 g ai/ha): 0
Rice, Transplanted plant response rating ([13]; 250 g ai/ha): 20
Plant response rating, Rice, Transplanted [13]: 0
Sprangletop, Brdd. plant response rating ([14]; 32 g ai/ha): 0
Sprangletop, Brdd. plant response rating ([14]; 64 g ai/ha): 0
Sprangletop, Brdd. plant response rating ([14]; 125 g ai/ha): 0
Sprangletop, Brdd. plant response rating ([14]; 250 g ai/ha): 40
Plant response rating, Sprangletop, Brdd. [14]: 0
Redstem plant response rating ([15]; 32 g ai/ha): 20
Redstem plant response rating ([15]; 64 g ai/ha): 20
Redstem plant response rating ([15]; 125 g ai/ha): 70
Redstem plant response rating ([15]; 250 g ai/ha): 100
Plant response rating, Redstem [15]: 0
Watergrass, Early plant response rating ([16]; 32 g ai/ha): 0
Watergrass, Early plant response rating ([16]; 64 g ai/ha): 10
Watergrass, Early plant response rating ([16]; 125 g ai/ha): 20
Watergrass, Early plant response rating ([16]; 250 g ai/ha): 30
Plant response rating, Watergrass, Early [16]: 0
Ducksalad plant response rating ([17]; 32 g ai/ha): 100
Ducksalad plant response rating ([17]; 64 g ai/ha): 100
Ducksalad plant response rating ([17]; 125 g ai/ha): 100
Ducksalad plant response rating ([17]; 250 g ai/ha): 100
Plant response rating, Ducksalad [17]: 100

CCOC(=O)c1nc(-c2ccc(Cl)cc2Cl)nc(N)c1Cl [Compound 72]
Plant response rating, Crabgrass [1, 18]: 10
Plant response rating, Crabgrass [1, 19]: 30
Plant response rating, Crabgrass [1, 20]: 0
Plant response rating, Crabgrass [1, 21]: 0
Plant response rating, Barnyardgrass [2, 18]: 0
Plant response rating, Barnyardgrass [2, 19]: 0
Plant response rating, Barnyardgrass [2, 20]: 0
Plant response rating, Barnyardgrass [2, 21]: 0
Plant response rating, Foxtail, Giant [3, 18]: 0
Plant response rating, Foxtail, Giant [3, 19]: 0
Plant response rating, Foxtail, Giant [3, 20]: 0
Plant response rating, Foxtail, Giant [3, 21]: 0
Plant response rating, Morningglory [4, 18]: 55
Plant response rating, Morningglory [4, 19]: 70
Plant response rating, Morningglory [4, 20]: 0
Plant response rating, Morningglory [4, 21]: 0
Plant response rating, Velvetleaf [5, 18]: 85
Plant response rating, Velvetleaf [5, 19]: 85
Plant response rating, Velvetleaf [5, 20]: 40
Plant response rating, Velvetleaf [5, 21]: 55
Plant response rating, Pigweed [6, 18]: 95
Plant response rating, Pigweed [6, 19]: 95
Plant response rating, Pigweed [6, 20]: 75
Plant response rating, Pigweed [6, 21]: 100
Rice, Water Seeded plant response rating ([7]; 32 g ai/ha): 0
Rice, Water Seeded plant response rating ([7]; 64 g ai/ha): 0
Rice, Water Seeded plant response rating ([7]; 125 g ai/ha): 0
Rice, Water Seeded plant response rating ([7]; 250 g ai/ha): 0
Plant response rating, Rice, Water Seeded [7]: 0
Sedge, Umbrella plant response rating ([8]; 32 g ai/ha): 30
Sedge, Umbrella plant response rating ([8]; 64 g ai/ha): 75
Sedge, Umbrella plant response rating ([8]; 125 g ai/ha): 90
Sedge, Umbrella plant response rating ([8]; 250 g ai/ha): 100
Plant response rating, Sedge, Umbrella [8]: 0
Watergrass, Late plant response rating ([9]; 32 g ai/ha): 0
Watergrass, Late plant response rating ([9]; 64 g ai/ha): 0
Watergrass, Late plant response rating ([9]; 125 g ai/ha): 0
Watergrass, Late plant response rating ([9]; 250 g ai/ha): 0
Plant response rating, Watergrass, Late [9]: 0
Junglerice plant response rating ([10]; 32 g ai/ha): 0
Junglerice plant response rating ([10]; 64 g ai/ha): 0
Junglerice plant response rating ([10]; 125 g ai/ha): 0
Junglerice plant response rating ([10]; 250 g ai/ha): 0
Plant response rating, Junglerice [10]: 0
Barnyardgrass plant response rating ([11]; 32 g ai/ha): 0
Barnyardgrass plant response rating ([11]; 125 g ai/ha): 0
Barnyardgrass plant response rating ([11]; 250 g ai/ha): 0
Flatsedge, Rice plant response rating ([12]; 32 g ai/ha): 100
Flatsedge, Rice plant response rating ([12]; 64 g ai/ha): 100
Flatsedge, Rice plant response rating ([12]; 125 g ai/ha): 100
Flatsedge, Rice plant response rating ([12]; 250 g ai/ha): 100
Plant response rating, Flatsedge, Rice [12]: 90
Rice, Transplanted plant response rating ([13]; 32 g ai/ha): 0
Rice, Transplanted plant response rating ([13]; 64 g ai/ha): 0
Rice, Transplanted plant response rating ([13]; 125 g ai/ha): 0
Rice, Transplanted plant response rating ([13]; 250 g ai/ha): 0
Plant response rating, Rice, Transplanted [13]: 0
Sprangletop, Brdd. plant response rating ([14]; 32 g ai/ha): 0
Sprangletop, Brdd. plant response rating ([14]; 64 g ai/ha): 0
Sprangletop, Brdd. plant response rating ([14]; 125 g ai/ha): 0
Sprangletop, Brdd. plant response rating ([14]; 250 g ai/ha): 0
Plant response rating, Sprangletop, Brdd. [14]: 0
Redstem plant response rating ([15]; 32 g ai/ha): 25
Redstem plant response rating ([15]; 64 g ai/ha): 25
Redstem plant response rating ([15]; 125 g ai/ha): 35
Redstem plant response rating ([15]; 250 g ai/ha): 100
Plant response rating, Redstem [15]: 0
Watergrass, Early plant response rating ([16]; 32 g ai/ha): 0
Watergrass, Early plant response rating ([16]; 64 g ai/ha): 0
Watergrass, Early plant response rating ([16]; 125 g ai/ha): 0
Watergrass, Early plant response rating ([16]; 250 g ai/ha): 0
Plant response rating, Watergrass, Early [16]: 0
Ducksalad plant response rating ([17]; 32 g ai/ha): 80
Ducksalad plant response rating ([17]; 64 g ai/ha): 100
Ducksalad plant response rating ([17]; 125 g ai/ha): 100
Ducksalad plant response rating ([17]; 250 g ai/ha): 100
Plant response rating, Ducksalad [17]: 80
